From patent publication US20200390689A1, “CERDULATINIB-CONTAINING TOPICAL SKIN PHARMACEUTICAL COMPOSITIONS AND USES THEREOF” (Dermavant Sciences GmbH, priority 2018, published 2020)
pIC50: −log10 of the molar value. Like-named read-outs stand apart in the source and are kept apart here.

Experiments:
[1] = test system: monocyte differentiation into immature DCs; experiment: IL-4/GM-CSF-mediated monocyte differentiation to immature dendritic cells (flow cytometry); format: cell-based; conditions: Homo sapiens, 120 h, purified monocytes, CD1a expression after five days
Protocol: Dendritic cells (DCs) are important antigen presenting cells that play an integral role in mediating inflammatory skin diseases. A subset of DCs are derived from monocytes and this differentiation is driven by IL-4/GM-CSF co-stimulation. The ability of DMVT-502 to disrupt the signaling responsible for monocyte differentiation into immature DCs was assessed by flow cytometry. […] Five days later, cells were stained for CD14 (monocyte marker) and CD1a (immature dendritic cell marker) and assessed for immature DC differentiation.

[2] = target: JAK1 (Homo sapiens, UniProt P23458); experiment: cell-based
Chain of JAK1 (P23458 whole entry): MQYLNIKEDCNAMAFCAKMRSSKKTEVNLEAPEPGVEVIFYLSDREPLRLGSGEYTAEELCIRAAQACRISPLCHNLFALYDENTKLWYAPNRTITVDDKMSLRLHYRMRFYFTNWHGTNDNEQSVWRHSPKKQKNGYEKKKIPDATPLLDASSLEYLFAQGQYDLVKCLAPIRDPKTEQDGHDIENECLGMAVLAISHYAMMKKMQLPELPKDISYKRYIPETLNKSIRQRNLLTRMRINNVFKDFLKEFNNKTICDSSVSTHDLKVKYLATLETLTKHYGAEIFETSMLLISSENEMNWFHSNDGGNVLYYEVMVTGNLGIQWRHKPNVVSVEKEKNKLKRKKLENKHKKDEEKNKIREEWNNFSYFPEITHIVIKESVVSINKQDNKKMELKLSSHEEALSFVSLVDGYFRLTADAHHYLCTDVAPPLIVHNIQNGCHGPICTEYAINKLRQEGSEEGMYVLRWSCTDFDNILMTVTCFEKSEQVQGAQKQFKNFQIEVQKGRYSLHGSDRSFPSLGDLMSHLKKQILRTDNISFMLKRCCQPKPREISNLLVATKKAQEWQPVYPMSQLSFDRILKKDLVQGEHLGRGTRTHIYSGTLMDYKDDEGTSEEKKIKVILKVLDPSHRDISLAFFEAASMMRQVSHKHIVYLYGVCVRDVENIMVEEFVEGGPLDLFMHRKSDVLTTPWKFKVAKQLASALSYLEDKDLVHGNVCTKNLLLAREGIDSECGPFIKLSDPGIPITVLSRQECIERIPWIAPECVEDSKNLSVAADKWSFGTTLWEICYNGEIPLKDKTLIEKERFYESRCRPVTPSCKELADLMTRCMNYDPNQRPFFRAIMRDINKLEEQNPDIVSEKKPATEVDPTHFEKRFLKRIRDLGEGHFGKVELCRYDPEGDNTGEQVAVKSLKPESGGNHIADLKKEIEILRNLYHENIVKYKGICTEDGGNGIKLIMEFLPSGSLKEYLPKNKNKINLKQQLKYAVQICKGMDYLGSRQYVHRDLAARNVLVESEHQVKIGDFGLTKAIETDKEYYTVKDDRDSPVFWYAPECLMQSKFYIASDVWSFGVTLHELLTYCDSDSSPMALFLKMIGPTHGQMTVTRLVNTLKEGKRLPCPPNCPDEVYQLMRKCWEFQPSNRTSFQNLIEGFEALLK

[3] = test system: IL-2 (JAK1/3-mediated signaling) STAT5 Y694 phosphorylation; experiment: IL-2 stimulated STAT5 Y694 phosphorylation in human whole blood; format: cell-based
Excerpt: (§1) To evaluate downstream signaling following cytokine stimulation, human whole blood was stimulated with IL-2 (JAK1/3-mediated signaling), which results in phosphorylation of STAT5 at tyrosine residue 694 (Y694). […] IL-6 (JAK1/2/Tyk2) stimulation leads to STAT3 Y705 phosphorylation in monocytes.

[4] = test system: IL-4 (JAK1/3-mediated) STAT6 Y641 phosphorylation; experiment: IL-4 stimulated STAT6 Y641 phosphorylation in human whole blood; format: cell-based
Excerpt: as §1

[5] = test system: IL-6 (JAK1/2/Tyk2) STAT3 Y705 phosphorylation; experiment: IL-6 stimulated STAT3 Y705 phosphorylation in human whole blood; format: cell-based; conditions: Monocyte, monocytes
Excerpt: as §1

[6] = test system: GM-CSF (JAK2-mediated) STAT5 Y694 phosphorylation; experiment: GM-CSF stimulated STAT5 Y694 phosphorylation in human whole blood; format: cell-based; conditions: Monocyte, monocytes, read-out: IC50, GM-CSF induced STAT5 Y694 phosphorylation
[7] = target: JAK2 (Homo sapiens, UniProt O60674); experiment: cell-based
Chain of JAK2 (O60674 whole entry): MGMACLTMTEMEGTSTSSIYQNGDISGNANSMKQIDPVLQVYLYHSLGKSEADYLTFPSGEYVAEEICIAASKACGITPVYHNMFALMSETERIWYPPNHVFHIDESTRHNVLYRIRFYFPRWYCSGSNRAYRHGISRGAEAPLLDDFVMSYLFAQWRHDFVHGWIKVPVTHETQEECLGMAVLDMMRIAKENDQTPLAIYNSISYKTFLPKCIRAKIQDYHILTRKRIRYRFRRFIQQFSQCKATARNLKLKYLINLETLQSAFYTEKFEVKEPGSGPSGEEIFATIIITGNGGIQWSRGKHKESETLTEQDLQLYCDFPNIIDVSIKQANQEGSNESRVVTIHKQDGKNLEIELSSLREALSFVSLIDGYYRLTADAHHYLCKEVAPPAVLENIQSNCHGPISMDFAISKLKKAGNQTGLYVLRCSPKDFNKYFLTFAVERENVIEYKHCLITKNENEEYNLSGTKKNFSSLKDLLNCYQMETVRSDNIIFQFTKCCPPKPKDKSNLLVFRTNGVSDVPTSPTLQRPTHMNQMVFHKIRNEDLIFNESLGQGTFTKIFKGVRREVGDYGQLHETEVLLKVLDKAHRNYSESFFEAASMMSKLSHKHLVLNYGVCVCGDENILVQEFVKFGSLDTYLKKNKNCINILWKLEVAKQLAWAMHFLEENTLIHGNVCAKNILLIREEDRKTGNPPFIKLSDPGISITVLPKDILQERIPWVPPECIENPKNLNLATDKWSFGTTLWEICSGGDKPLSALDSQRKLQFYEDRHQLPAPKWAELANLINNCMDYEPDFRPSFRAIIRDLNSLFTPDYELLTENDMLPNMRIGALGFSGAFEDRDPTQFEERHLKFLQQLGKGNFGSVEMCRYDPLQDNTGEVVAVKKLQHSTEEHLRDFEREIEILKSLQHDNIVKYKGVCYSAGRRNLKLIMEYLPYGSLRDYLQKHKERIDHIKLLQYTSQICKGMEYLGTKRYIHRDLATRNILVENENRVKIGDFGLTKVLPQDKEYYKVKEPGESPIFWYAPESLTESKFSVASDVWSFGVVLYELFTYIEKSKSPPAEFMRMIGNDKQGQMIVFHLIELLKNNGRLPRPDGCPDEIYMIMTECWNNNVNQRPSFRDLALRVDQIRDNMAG

[8] = test system: IL-4-mediated upregulation of CD23 and CD25 on monocytes; experiment: IL-4-mediated upregulation of cell surface markers CD23 and CD25 on monocytes; format: cell-based; conditions: Homo sapiens, Monocyte
[9] = target: T1, Tyk2 (Homo sapiens, UniProt P29597); experiment: DiscoveRx cellular platform, Tyk2; format: cell-based
T1 construct: DiscoveRx
T1 sequence (P29597 whole entry): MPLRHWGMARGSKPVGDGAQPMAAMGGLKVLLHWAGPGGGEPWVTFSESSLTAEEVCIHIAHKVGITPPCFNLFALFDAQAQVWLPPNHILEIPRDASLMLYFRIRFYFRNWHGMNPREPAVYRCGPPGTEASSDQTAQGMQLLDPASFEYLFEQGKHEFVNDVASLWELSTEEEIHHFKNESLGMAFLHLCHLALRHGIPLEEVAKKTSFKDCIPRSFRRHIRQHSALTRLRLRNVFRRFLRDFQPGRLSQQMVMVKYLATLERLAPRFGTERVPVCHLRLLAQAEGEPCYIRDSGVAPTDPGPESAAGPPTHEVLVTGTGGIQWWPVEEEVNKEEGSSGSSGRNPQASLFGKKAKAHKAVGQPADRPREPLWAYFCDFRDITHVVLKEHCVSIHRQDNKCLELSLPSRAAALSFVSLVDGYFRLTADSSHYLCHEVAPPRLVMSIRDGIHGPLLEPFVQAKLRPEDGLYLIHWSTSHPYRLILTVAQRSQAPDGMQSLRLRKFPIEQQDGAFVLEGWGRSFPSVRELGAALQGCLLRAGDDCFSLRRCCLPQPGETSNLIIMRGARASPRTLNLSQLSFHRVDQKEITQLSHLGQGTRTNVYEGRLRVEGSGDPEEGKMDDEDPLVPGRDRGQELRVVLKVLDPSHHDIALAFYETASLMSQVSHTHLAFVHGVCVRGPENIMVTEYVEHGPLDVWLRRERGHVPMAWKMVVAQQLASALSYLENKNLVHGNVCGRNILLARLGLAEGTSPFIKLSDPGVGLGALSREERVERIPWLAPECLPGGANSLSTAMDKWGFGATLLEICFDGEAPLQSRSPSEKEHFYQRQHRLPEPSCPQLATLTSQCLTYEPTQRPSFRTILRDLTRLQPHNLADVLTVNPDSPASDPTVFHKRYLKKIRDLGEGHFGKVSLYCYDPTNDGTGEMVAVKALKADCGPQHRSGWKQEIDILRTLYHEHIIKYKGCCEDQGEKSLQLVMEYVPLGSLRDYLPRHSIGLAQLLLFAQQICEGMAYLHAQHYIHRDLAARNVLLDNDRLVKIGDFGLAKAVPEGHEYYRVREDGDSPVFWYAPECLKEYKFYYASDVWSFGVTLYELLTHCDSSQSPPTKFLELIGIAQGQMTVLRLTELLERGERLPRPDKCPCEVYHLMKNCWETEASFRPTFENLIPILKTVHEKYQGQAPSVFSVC

[10] = test system: vitiligo; experiment: Study DMVT-502-9025, mouse model of vitiligo; format: in vivo
Protocol: The model mimics human vitiligo by inducing epidermal depigmentation with autoreactive CD8+ T-cell accumulation. A schematic of the model is depicted in FIG. 15. […] Ten mice were used in the study: three REX3 reporter mice for cytokines CXCL9 and CXCL10 and seven SCF (stem cell factor) mice. The vitiligo study timeline is depicted in FIG. 16. The following assessments were performed during the study: • Blinded scoring of ears, tail, nose, and ventral feet (0-5 scale) • Epidermal, dermal, spleen, and lymph node PMEL (premelanosome protein) cell count • Epidermal/dermal APC (antigen-presenting cell) count • Keratinocyte cytokine expression

[11] = test system: DNCB-induced atopic dermatitis; experiment: DNCB-induced atopic dermatitis in the NC/Nga mouse model; format: in vivo
Protocol: Atopic dermatitis was induced by repeated application of DNCB (1-chloro-2,4-dinitrobenzene) to the dorsal skin of the ears/back. […] Lesions were evaluated on days 2, 8, 11, and 14.
Macroscopic lesion severity scores are depicted in FIG. 7. Macroscopic skin lesion severity was measured on the indicated Study Days by assessing (0-3 scale) the presence of erythema, edema, excoriation/erosion, and dryness scaling on the ears, neck, and dorsal skin of animals.
Serum IgE levels are depicted in FIG. 8. Serum samples obtained on Study Day 15 were utilized for IgE quantitation. Select cytokine data from the study are depicted in FIG. 9. Skin samples harvested on Day 15 were analyzed by LUMINEX for inflammatory cytokine levels for IL-4, IL-5, IL-13, and IL-31.

[12] = test system: JAK1/JAK3-dependent signaling pathways; experiment: Cytokine-mediated STAT phosphorylation in peripheral blood mononuclear cells (phospho-flow cytometry); format: cell-based; conditions: Homo sapiens; PBMC; T cells and monocytes
[13] = target: T2, Syk (Homo sapiens, UniProt P43405); experiment: DiscoveRx cellular platform, Syk; format: cell-based
T2 construct: DiscoveRx

[14] = 30 and 60 mg/kg oral, vs vehicle

CCS(=O)(=O)N1CCN(c2ccc(Nc3ncc(C(N)=O)c(NC4CC4)n3)cc2)CC1 [DMVT-502, Cerdulatinib]
pIC50 [1]: ~7.00
pIC50 [2]: 7.01
pIC50 ([3]; CD4+ T cells): 6.52
pIC50 ([3]; T-cell, CD8+ T cells): 6.80
pIC50 ([4]; B-cell, CD19+ B cells): 6.04
pIC50 ([4]; CD4+ T cells): 6.24
pIC50 ([4]; Monocyte, CD14+ monocytes): 6.00
pIC50 ([4]; T-cell, CD8+ T cells): 6.48
pIC50 [5]: 6.59
pIC50 [6]: ~5.40
pIC50 [7]: 5.31
pIC50 ([8]; read-out: IC50, IL-4-mediated upregulation of CD23): 6.64
pIC50 ([8]; read-out: IC50, IL-4-mediated upregulation of CD25): 6.38
pIC50 [9]: 5.76
CD3+, CD8− T-cell counts in the spleen ([10]; 60 mg/kg oral): significantly reduced
Host T-cell counts in blood ([10]; 60 mg/kg oral): significantly decreased
PMEL T-cell counts in dermis and blood ([10]; 60 mg/kg oral): significantly reduced
APCs in the dermal skin compartment and Langerhans cells in the epidermal skin compartment ([10]; 60 mg/kg oral, vs vehicle): significantly reduced
Vitiligo scores ([10]; 30 and 60 mg/kg once daily oral, 5 weeks, vs vehicle): significantly decreased
Host-derived total T-cell counts in the spleen ([10]; 30 and 60 mg/kg oral): significantly reduced
APC counts in lymph nodes and the spleen [10, 14]: significantly reduced
PMEL T-cell counts in the epidermis and dermis [10, 14]: significantly reduced
CXCL9 and CXCL10 expression in lymph node APCs ([10]; 30 or 60 mg/kg oral): Reduced
Lymph node or spleen PMEL T cells ([10]; 30 or 60 mg/kg oral): no significant differences
CXCL9, CXCL10, and dual expression in keratinocytes ([10]; SCF/REX3 mice, vs vehicle): trends towards reduced
Total keratinocyte counts ([10]; between treatment groups): No decrease
Pro-inflammatory cytokine levels in skin ([11]; Day 15, topical treatment): limited suppression
Serum IgE levels ([11]; Study Day 15, topical therapy): trends towards reduction
pIC50 [12]: > 6.70
pIC50 [13]: 5.89
